biological target: T1, P2X7 (Homo sapiens, UniProt Q99572); assay: High Throughput P2X7 Calcium Mobilization Assay (Example 4A), antagonist activity; type: cell-based; conditions: SH-SY5Y cells, 50% decrease in fluorescence response of cells exposed to 80 μM BzATP
T1 construct: host or cells: SH-SY5Y
T1 sequence (Q99572 1-595): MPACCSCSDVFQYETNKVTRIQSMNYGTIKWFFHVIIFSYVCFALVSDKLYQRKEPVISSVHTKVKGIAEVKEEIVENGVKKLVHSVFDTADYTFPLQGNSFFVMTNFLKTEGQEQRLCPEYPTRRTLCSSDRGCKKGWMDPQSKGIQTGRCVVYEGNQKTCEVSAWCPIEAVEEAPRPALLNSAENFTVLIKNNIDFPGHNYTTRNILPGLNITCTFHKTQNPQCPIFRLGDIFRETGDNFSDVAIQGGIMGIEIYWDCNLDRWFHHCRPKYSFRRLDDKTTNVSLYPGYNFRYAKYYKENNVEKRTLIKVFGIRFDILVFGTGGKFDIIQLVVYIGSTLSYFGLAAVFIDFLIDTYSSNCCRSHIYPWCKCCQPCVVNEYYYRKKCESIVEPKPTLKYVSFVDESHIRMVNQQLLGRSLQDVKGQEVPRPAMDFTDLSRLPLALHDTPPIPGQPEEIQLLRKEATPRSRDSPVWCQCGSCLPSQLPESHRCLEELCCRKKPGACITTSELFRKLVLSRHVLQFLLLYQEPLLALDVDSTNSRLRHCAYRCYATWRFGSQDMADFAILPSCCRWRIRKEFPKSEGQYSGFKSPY
Description: A. High Throughput P2X7 Calcium Mobilization Assay
SH-SY5Y cells, ATCC Number CRL-2266, (American Type Culture Collection, Manassas, Va.) are cultured under DMEM/High medium supplemented with 10% FBS, and 10 mM HEPES (Invitrogen Corp., Carlsbad, Calif.) in 5% CO2 and at 37° C. One day prior to the experiment, cells are plated at a density of 100,000 cells/well in a 96 well black/clear TC plate (Corning® Costar®, Sigma-Aldrich Co., St. Louis, Mo.). At the beginning of the experiment, the culture medium is removed and cells are incubated with 50 μL of 2.3 μM Fluo-4 AM dye (Invitrogen Corp.) in the assay solution (5 mM KCl, 9.6 mM NaH2PO4.H2O, 25 mM HEPES, 280 mM Sucrose, 5 mM Glucose, and 0.5 mM CaCl2; pH is adjusted to 7.4 with NaOH) for an hour at 37° C. After one hour dye incubation, wells are rinsed once with 50 μL assay solution, and are then incubated for an hour at room temperature with 100 μL assay solution containing the test compound. The final concentration of test compound generally ranges from 1 to 2500 nM; for positive control cells, no test compound is added. After the one hour incubation, plates are transferred to a FLIPR^TETRA instrument (Molecular Devices, Sunnyvale, Calif.) for calcium mobilization analysis.
For determination of antagonist activity, 50 μL of P2X7 agonist (2′(3′)-O-(4-benzoyl-benzoyl)adenosine 5′-triphosephate (BzATP; Sigma-Aldrich) in the assay solution is transferred using the FLIPR into the plate, such that the final agonist concentration is 80 μM (about EC50). In negative control cells, 50 μL of assay solution without agonist is added at this stage. The peak fluorescence signal over a 2 minute period is then measured.
First, the average maximum relative fluorescent unit (RFU) response from the negative control wells (no agonist) is subtracted from the maximum response detected for each of the other experimental wells. Second, average maximum RFU response is calculated for the positive control wells (agonist wells). Then, percent inhibition for each compound tested is calculated using the equation: Percent Inhibition=100−100×(Peak Signal in Test Cells/Peak Signal in Control Cells) The % inhibition data is plotted as a function of test compound concentration and test compound IC50 is determined using, for example, KALEIDAGRAPH software (Synergy Software, Reading, Pa.) best fit of the data to the equation: y=m1*(1/(1+(m2/m0)^m3)) where y is the percent inhibition, m0 is […], m1 is the maximum RFU, m2 corresponds to the test compound IC50 (the concentration required to provide a 50% decrease, relative to the response observed in the presence of agonist and without antagonist) and m3 is the Hill coefficient.

IC50 [µM]	Molecule
≤ 2	CN[C@@H]1CCN(C(=O)c2cc3c(C(=O)NCC45CC6CC(CC(C6)C4)C5)cccn3n2)C1 [Compound 46, N-(adamantan-1-ylmethyl)-2-{[(3R)-3-(methylamino)pyrrolidin-1-yl]carbonyl}pyrazolo [1,5-a]pyridine-4-carboxamide]
≤ 2	CC(C)N[C@@H]1CCN(C(=O)c2cc3c(C(=O)NCC45CC6CC(CC(C6)C4)C5)cccn3n2)C1 [Compound 16, N-(adamantan-1-ylmethyl)-2-{[(3R)-3-(isopropylamino)pyrrolidin-1-yl]carbonyl}pyrazolo [l,5-a]pyridine-4-carboxamide]
≤ 2	O=C(NCC1(c2ccc(Cl)cc2)CCCCC1)c1cccn2nc(C(=O)N3CCOCC3)cc12 [Compound 84, N-{[1-(4-chlorophenyl)cyclohex-yl]methyl}-2-(morpholin-4-ylcarbonyl)pyrazolo [1,5-a]pyridine-4-carboxamide]
≤ 2	CC(C)CC(CNC(=O)c1cccn2nc(C(=O)N3CCC[C@@H](N)C3)cc12)c1ccccc1 (stereo partly drawn) [Compound 43, 2-{[(3R)-3-aminopiperidin-1-yl]carbonyl}-N-(4-methyl-2-phenylpentyl)pyrazolo [1,5-a]pyridine-4-carboxamide]
≤ 2	O=C(NCc1ccccn1)c1cc2c(C(=O)NCC34CC5CC(CC(C5)C3)C4)cccn2n1 [Compound 51, 4-N-(adamantan-1-ylmethyl)-2-N-(pyridin-2-ylmethyl)pyrazolo[1,5-a]pyridine-2,4-dicarboxamide]
≤ 2	O=C(NCC12CC3CC(CC(C3)C1)C2)c1cccn2nc(C(=O)N3CCn4cnnc4C3)cc12 [Compound 24, N-(adamantan-1-ylmethyl)-2-(5,6-dihydro[1,2,4]triazolo [4,3-a]pyrazin-7(8H)-ylcarbonyl)pyrazolo [1,5-a]pyridine-4-carboxamide]
≤ 2	CN(C)[C@@H]1CCN(C(=O)c2cc3c(C(=O)NCC45CC6CC(CC(C6)C4)C5)cccn3n2)C1 [Compound 27, N-(adamantan-1-ylmethyl)-2-{[(3R)-3-(dimethylamino)pyrrolidin-1-yl]carbonyl}pyrazolo [1,5-a]pyridine-4-carboxamide]
≤ 2	O=C1CC2(CCN(C(=O)c3cc4c(C(=O)NCC56CC7CC(CC(C7)C5)C6)cccn4n3)CC2)CN1 [Compound 40, N-(adamantan-1-ylmethyl)-2-[(3-oxo-2,8-diazaspiro[4.5]dec-8-yl)carbonyl]pyrazolo [1,5-a]pyridine-4-carboxamide]
≤ 2	CN(Cc1cnccn1)C(=O)c1cc2c(C(=O)NCC34CC5CC(CC(C5)C3)C4)cccn2n1 [Compound 48, 4-N-(adamantan-1-ylmethyl)-2-N-methyl-2-N-(pyrazin-2-ylmethyl)pyrazolo[1,5-a]pyridine-2,4-dicarboxamide]
≤ 2	O=C1CN(C(=O)c2cc3c(C(=O)NCC45CC6CC(CC(C6)C4)C5)cccn3n2)CCN1 [Compound 32, N-(adamantan-1-ylmethyl)-2-[(3-oxopiperazin-1-yl)carbonyl]pyrazolo [1,5-a]pyridine-4-carboxamide]
≤ 2	O=C(NCC12CC3CC(CC(C3)C1)C2)c1cccn2nc(C(=O)N3CCn4cncc4C3)cc12 [Compound 20, N-(adamantan-1-ylmethyl)-2-(5,6-dihydroimidazo[1,5-a]pyrazin-7(8H)-ylcarbonyl)pyrazolo [1,5-a]pyridine-4-carboxamide]
≤ 2	O=C1NCC2(CCN(C(=O)c3cc4c(C(=O)NCC56CC7CC(CC(C7)C5)C6)cccn4n3)CC2)O1 [Compound 36, N-(adamantan-1-ylmethyl)-2-[(2-oxo-1-oxa-3,8-diazaspiro[4.5]dec-8-yl)carbonyl]pyrazolo [1,5-a]pyridine-4-carboxamide]
≤ 2	CN(Cc1cccnc1)C(=O)c1cc2c(C(=O)NCC34CC5CC(CC(C5)C3)C4)cccn2n1 [Compound 21, 4-N-(adamantan-1-ylmethyl)-2-N-methyl-2-N-(pyridin-3-ylmethyl)pyrazolo[1,5-a]pyridine-2,4-dicarboxamide]
≤ 2	O=C(NCC1(c2ccc(Cl)cc2)CCCCC1)c1cccn2nc(C(=O)N3CCn4cncc4C3)cc12 [Compound 83, N-{[1-(4-chlorophenyl)cyclohex-yl]methyl}-2-(5,6-dihydroimidazo[1,5-a]pyrazin-7(8H)-ylcarbonyl)pyrazolo [1,5-a]pyridine-4-carboxamide]

The remaining lines, values behind:

Molecule	IC50 [µM]
CN(Cc1cccnc1)Cc1cc2c(C(=O)NCC34CC5CC(CC(C5)C3)C4)cccn2n1 [Compound 54, N-(adamantan-1-ylmethyl)-2-{[methyl(pyridin-3-ylmethyl)amino]methyl} pyrazolo[1,5-a]pyridine-4-carboxamide]	≤ 2
CN(Cc1ccc(F)cc1)Cc1cc2c(C(=O)NCC34CC5CC(CC(C5)C3)C4)cccn2n1 [Compound 70, N-(adamantan-1-ylmethyl)-2-{[(4-fluorobenzyl)(methyl)amino]methyl}pyrazolo [1,5-a]pyridine-4-carboxamide]	≤ 2
O=C(NCC(F)F)c1cc2c(C(=O)NCC34CC5CC(CC(C5)C3)C4)cccn2n1 [Compound 63, 4-N-(adamantan-1-ylmethyl)-2-N-(2,2-difluoroethyl)pyrazolo [1,5-a]pyridine-2,4-dicarboxamide]	≤ 2
O=C(NCC12CC3CC(CC(C3)C1)C2)c1cccn2nc(CCC3=NCCN3)cc12 [Compound 95, N-(adamantan-1-ylmethyl)-2-[2-(4,5-dihydro-1H-imidazol-2-yl)ethyl]pyrazolo[1,5-a]pyridine-4-carboxamide]	≤ 2
CN(CC(F)(F)F)C(=O)Cc1cc2c(C(=O)NCC34CC5CC(CC(C5)C3)C4)cccn2n1 [Compound 79, N-(adamantan-1-ylmethyl)-2-{2-[methyl(2,2,2-trifluoroethyl)amino]-2-oxoethyl}pyrazolo[1,5-a]pyridine-4-carboxamide]	≤ 2
CN(CC(F)(F)F)C(=O)c1cc2c(C(=O)NCC34CC5CC(CC(C5)C3)C4)cccn2n1 [Compound 76, 4-N-(adamantan-1-ylmethyl)-2-N-methyl-2-N-(2,2,2-trifluoroethyl)pyrazolo [1,5-a]pyridine-2,4-dicarboxamide]	≤ 2
O=C(Cc1cc2c(C(=O)NCC34CC5CC(CC(C5)C3)C4)cccn2n1)NCC(F)F [Compound 60, N-(adamantan-1-ylmethyl)-2-{2-[(2,2-difluoroethyl)amino]-2-oxoethyl}pyrazolo[1,5-a]pyridine-4-carboxamide]	≤ 2
O=C(NCC12CC3CC(CC(C3)C1)C2)c1cccn2nc(CC3=NCCN3)cc12 [Compound 89, N-(adamantan-1-ylmethyl)-2-(4,5-dihydro-1H-imidazol-2-ylmethyl)pyrazolo[1,5-a]pyridine-4-carboxamide]	≤ 2
CN(C(=O)c1cc2c(C(=O)NCC34CC5CC(CC(C5)C3)C4)cccn2n1)C1CCOC1 (stereo not shown) [Compound 28, 4-N-(adamantan-1-ylmethyl)-2-N-methyl-2-N-(tetrahydrofuran-3-yl)pyrazolo[1,5-a]pyridine-2,4-dicarboxamide]	≤ 2
2-{[(3R)-3- aminopyrrolidin-1- yl]carbonyl}-N-[4- methyl-2-(4- methylphenyl)pentyl] pyrazolo[1,5-a]pyridine- 4-carboxamide [Compound 73]	≤ 2
O=C(NC1CCOCC1)c1cc2c(C(=O)NCC34CC5CC(CC(C5)C3)C4)cccn2n1 [Compound 35, 4-N-(adamantan-1-ylmethyl)-2-N-(tetrahydro-2H-pyran-4-yl)pyrazolo[1,5-a]pyridine-2,4-dicarboxamide]	≤ 2

From patent US8580812B2, “Heteroaryl amide analogues as P2X7 antagonists” (H. Lundbeck A/S, priority 2007, dated 2013)
